Activity calls are given as the source filed them.
What was measured:
HEK293 = assay: inhibitors of LMP1-driven NF-kB reporter, dose response, cell-based, HEK293, luciferase, cherry-pick (AID 588343); format: functional; settings: Homo sapiens
[1] = NIH-3T3 fibroblast cytotoxicity, dose response, cytotoxicity control, cell-based, fluorescence, Alamar Blue, secondary assay (AID 2327); format: functional;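 further: NIH-3T3 mouse fibroblasts cultured with fluconazole at 8 µg/mL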
BJ [2] = assay: cells; format: functional, cell-based; settings: Homo sapiens
BJ [3] = assay: cytotoxicity toward BJ-TERT fibroblasts, dose response, cell-based, RAS-independent, luminescence (AID 1933); format: functional; settings: Homo sapiens
[4] = growth suppression of beta-catenin-knockout colon cells, dose response, cell-based, HCT116, human colon tumor (AID 1045); format: functional;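 further: HCT116 colon tumor cells with beta catenin knocked out; cells exposed to compound for 60 hours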
[5] = cytotoxicity toward DRD oncogenic fibroblasts, dose response, cell-based, non-viral oncogenic, luminescence (AID 1934); format: functional; settings: Homo sapiens
BJ [6] = assay: cytotoxicity toward Ras-transformed BJeLR fibroblasts, dose response, cell-based, alamar blue fluorescence, cherrypicked samples (AID 2631); format: functional; settings: Homo sapiens;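 further: confirmatory dose-response assay in RAS-dependent BJ fibroblasts engineered with TERT, LT and ST, with cytotoxicity read by fluorescence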
BJ [7] = assay: cytotoxicity toward BJ-TERT-LT-ST fibroblasts, dose response, cell-based, RAS-independent, luminescence (AID 1935); format: functional; settings: Homo sapiens;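 further: BJ fibroblasts immortalized with TERT plus LT and ST oncogenes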
[8] = C. albicans growth with fluconazole, confirmation, fluorescence, retest (AID 2467); format: functional, cell-based
[9] = growth suppression of PTEN-null colon cells, dose response, cell-based, HCT116 PTEN knockout (AID 1047); format: functional;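 further: HCT116 colon tumor cells with PTEN knocked out; cells exposed to compound for 60 hours before readout; potency for loss of cell viability measured by luminescence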
[10] = target: T1, Sentrin-specific protease 6 (Homo sapiens, UniProt Q9GZR1); format: functional;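 further: Luminescence-based dose-response confirmatory assay of SENP6 inhibition, following up an ultra-high-throughput screen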
T1 sequence (Q9GZR1 whole entry): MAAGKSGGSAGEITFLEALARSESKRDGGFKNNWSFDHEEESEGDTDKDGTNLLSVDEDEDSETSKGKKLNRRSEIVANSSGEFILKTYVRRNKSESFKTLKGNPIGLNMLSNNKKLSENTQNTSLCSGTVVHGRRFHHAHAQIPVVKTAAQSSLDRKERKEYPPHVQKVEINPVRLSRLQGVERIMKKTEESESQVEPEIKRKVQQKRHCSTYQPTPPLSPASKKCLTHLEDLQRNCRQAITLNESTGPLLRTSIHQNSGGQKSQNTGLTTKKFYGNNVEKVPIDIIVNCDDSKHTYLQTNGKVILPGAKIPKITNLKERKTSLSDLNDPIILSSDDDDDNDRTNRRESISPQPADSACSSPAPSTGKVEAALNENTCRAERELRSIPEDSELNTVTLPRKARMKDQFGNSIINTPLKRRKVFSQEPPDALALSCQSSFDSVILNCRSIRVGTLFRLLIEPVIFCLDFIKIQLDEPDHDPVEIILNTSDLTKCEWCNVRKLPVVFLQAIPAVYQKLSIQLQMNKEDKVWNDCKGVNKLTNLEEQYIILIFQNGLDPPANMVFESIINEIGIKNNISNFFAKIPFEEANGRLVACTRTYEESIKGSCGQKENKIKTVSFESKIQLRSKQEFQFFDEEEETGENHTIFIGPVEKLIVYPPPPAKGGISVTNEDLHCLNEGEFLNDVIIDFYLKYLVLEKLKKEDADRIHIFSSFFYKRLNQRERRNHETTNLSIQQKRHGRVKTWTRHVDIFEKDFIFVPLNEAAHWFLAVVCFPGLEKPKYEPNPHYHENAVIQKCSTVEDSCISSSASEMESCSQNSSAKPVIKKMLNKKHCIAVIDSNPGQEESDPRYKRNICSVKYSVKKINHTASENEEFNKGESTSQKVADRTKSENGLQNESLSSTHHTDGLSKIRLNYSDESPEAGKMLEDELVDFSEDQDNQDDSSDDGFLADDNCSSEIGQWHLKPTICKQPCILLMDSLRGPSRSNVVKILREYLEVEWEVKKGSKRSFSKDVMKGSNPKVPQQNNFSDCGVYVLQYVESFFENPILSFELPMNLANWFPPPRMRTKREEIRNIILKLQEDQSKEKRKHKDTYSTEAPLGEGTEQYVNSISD

[11] = target: T2, Rac GTPase-activating protein 1 (Homo sapiens, UniProt Q9H0H5); assay: MgcRacGAP GTPase-activating activity inhibitors, confirmation, biochemical, ADP Hunter fluorescence, primary and confirmatory (AID 624330); format: functional
T2 sequence (Q9H0H5 whole entry): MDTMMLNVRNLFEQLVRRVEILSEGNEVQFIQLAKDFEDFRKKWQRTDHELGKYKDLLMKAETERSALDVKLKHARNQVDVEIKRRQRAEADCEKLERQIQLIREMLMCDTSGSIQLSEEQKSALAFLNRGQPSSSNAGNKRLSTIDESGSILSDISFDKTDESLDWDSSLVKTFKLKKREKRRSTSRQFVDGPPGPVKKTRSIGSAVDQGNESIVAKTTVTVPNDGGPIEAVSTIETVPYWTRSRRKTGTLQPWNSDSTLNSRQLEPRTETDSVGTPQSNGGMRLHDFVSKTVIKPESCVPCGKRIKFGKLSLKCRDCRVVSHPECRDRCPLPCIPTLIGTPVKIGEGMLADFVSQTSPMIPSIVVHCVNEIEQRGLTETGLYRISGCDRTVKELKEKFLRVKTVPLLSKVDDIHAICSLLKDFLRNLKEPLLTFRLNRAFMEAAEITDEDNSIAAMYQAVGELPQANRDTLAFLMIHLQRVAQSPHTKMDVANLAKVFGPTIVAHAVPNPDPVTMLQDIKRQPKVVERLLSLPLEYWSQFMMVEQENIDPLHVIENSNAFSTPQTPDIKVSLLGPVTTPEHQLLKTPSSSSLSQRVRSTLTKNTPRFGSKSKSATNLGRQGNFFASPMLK

HeLa = assay: HeLa cell cytotoxicity, dose response, cytotoxicity control for MITF activator project, CellTiter-Glo luminescence, cherry-pick samples (AID 540259); format: functional, cell-based; settings: Homo sapiens
[12] = target: T3, Sentrin-specific protease 7 (Homo sapiens, UniProt Q9BQF6); format: functional;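 further: Luminescence-based dose-response confirmation of ultra-high-throughput screening hits, measuring inhibition of SENP7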
T3 sequence (Q9BQF6 whole entry): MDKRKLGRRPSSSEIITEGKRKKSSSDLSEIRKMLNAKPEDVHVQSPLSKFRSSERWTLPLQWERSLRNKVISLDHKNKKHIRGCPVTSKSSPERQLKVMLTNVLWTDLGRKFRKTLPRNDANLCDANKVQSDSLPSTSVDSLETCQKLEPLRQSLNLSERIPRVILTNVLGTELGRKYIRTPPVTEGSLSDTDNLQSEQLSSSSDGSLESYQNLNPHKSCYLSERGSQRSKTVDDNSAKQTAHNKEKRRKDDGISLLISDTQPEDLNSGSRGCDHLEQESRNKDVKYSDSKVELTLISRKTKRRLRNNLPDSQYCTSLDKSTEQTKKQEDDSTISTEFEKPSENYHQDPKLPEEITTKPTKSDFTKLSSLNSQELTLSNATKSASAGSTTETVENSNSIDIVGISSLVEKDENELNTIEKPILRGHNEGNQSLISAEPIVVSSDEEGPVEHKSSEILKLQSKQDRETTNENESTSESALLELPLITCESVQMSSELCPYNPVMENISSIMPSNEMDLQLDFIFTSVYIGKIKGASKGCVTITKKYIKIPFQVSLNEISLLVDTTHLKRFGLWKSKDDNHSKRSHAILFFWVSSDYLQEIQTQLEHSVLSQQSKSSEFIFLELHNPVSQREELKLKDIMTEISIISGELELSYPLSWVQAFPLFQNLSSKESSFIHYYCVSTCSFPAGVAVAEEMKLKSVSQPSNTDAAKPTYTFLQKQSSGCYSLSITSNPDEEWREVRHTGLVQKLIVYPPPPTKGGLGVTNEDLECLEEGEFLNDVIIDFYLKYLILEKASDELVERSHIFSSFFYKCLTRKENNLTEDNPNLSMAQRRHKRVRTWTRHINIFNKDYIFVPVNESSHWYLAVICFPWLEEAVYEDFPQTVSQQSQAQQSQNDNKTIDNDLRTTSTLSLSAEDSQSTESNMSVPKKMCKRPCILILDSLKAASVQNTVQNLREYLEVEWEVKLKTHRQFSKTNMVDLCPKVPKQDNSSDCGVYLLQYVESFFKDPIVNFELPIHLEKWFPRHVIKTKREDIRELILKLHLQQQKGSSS

[13] = target: T4, Sentrin-specific protease 8 (Homo sapiens, UniProt Q96LD8); format: functional;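 further: luminescence read-out of SENP8 inhibition, dose-response confirmation following an ultra-high-throughput screen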
T4 sequence (Q96LD8 whole entry): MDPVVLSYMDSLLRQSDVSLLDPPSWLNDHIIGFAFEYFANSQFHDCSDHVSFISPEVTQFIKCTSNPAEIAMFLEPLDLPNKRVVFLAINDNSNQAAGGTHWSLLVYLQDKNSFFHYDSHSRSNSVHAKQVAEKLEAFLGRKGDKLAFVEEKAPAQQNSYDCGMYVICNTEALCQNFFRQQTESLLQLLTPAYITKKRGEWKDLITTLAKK

Caspase-3 = target: T5, Caspase-3 (Homo sapiens, UniProt P42574); format: functional;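 further: Dose-response selectivity test against caspase-3 for candidate inhibitors of sentrin-specific proteases (SENPs)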
T5 sequence (P42574 whole entry): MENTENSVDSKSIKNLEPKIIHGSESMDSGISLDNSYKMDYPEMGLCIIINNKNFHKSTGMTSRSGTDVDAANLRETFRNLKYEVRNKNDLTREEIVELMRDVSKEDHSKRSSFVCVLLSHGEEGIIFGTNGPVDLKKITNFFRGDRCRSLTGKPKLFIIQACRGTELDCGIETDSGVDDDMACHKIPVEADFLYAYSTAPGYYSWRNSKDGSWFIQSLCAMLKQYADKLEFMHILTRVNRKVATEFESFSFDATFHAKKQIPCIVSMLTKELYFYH

SMILES: COc1ccc(C=NNc2nc3ccccc3s2)cc1
- AC50 (HEK293): 2.96 µM (active)

SMILES: O=c1c2ccccc2nc(/C=C/c2ccc([N+](=O)[O-])o2)n1CCCO
- EC50 [1]: 7.14 µM (inconclusive)
- EC50 (BJ [2]): 7.21 µM (inconclusive)
- EC50 (BJ [3]): 6.12 µM (inconclusive)
- EC50 [4]: < 0.059 µM (active)
- EC50 [5]: 5.06 µM (inconclusive)
- EC50 (BJ [6]): 3.07 µM (active)
- EC50 (BJ [7]): 3.96 µM (active)
- EC50 [8]: 0.503 µM (active)
- EC50 [9]: < 0.059 µM (active)

SMILES: CCN(CC)c1ccc(Nc2nc(-c3cccnc3)cs2)cc1
- IC50 [10]: 16.9 µM (active)
- IC50 [11]: 185 µM (active)
- AC50 (HeLa): 77 µM (active)
- IC50 [12]: 4.32 µM (active)
- IC50 [13]: 26.7 µM (active)
- IC50 (Caspase-3): 21.5 µM (active)
